# Test system: Bovine cardiac myofibrils
# Experiment: In vitro model of dose-dependent myofibril ATPase modulation (AC1.4, pyruvate kinase/lactate dehydrogenase-coupled ATPase assay at pCa25)
# Type: biochemical
# Conditions: concentration at which ATPase activity was 1.4-fold higher than the bottom of the dose curve, mean of a minimum of two independent tests
# Summary of the method: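 Detergent-skinned bovine cardiac myofibrils (typically 0.25-1.0 mg/ml) in Ca-buffered (EGTA/CaCl2) PK/LDH-coupled ATPase assay: 12 mM K-PIPES pH 6.80, 2 mM MgCl2, 1 mM ATP, 1 mM DTT, 0.5 mM NADH, 1.5 mM PEP. Hydrolysis followed at 340 nm; dose response fit to 4-parameter equation; AC1.4 is mean of ≥2 tests.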
row,Compound,AC1.4
1,"COc1cccc(C(=O)N2CCC[C@@H]2C(=O)N[C@@H](c2ccc(C(F)(F)F)cc2F)C2CC2)c1 [Example 784, N-((R)-cyclopropyl(2-fluoro-4-(trifluoromethyl)phenyl)methyl)-1-(3-methoxybenzoyl)-D-prolinamide]",8.852 µM
2,"C[C@@H](NC(=O)[C@H]1CCCN1C(=O)c1cccc(S(=O)(=O)N2CC(C#N)C2)c1)c1ccccc1 [Example 785, 1-((3-((3-cyano-1-azetidinyl)sulfonyl)phenyl)carbonyl)-N-((1R)-1-phenylethyl)-D-prolinamide]",8.8883 µM
3,"CCc1ccnc(C(=O)N2[C@@H](C(=O)N[C@@H](c3ccc(C(F)(F)F)cc3F)C3COC3)C[C@H]3C[C@H]32)c1 [Example 786, (1R,3R,5R)-2-((4-ethyl-2-pyridinyl)carbonyl)-N-((R)-(2-fluoro-4-(trifluoromethyl)phenyl)(3-oxetanyl)methyl)-2-azabicyclo[3.1.0]hexane-3-carboxamide]",8.9175 µM
4,"O=C(NCc1ccc(C(F)(F)F)cc1)[C@H]1CCCN1C(=O)[C@H]1CCCN(S(=O)(=O)N2CC(CC(F)(F)F)C2)C1 [Example 787, 1-(((3S)-1-((3-(2,2,2-trifluoroethyl)-1-azetidinyl)sulfonyl)-3-piperidinyl)carbonyl)-N-(4-(trifluoromethyl)benzyl)-D-prolinamide]",8.931 µM
5,"COCC1CN(S(=O)(=O)N2CCC[C@H](C(=O)N3CCC[C@@H]3C(=O)NCc3ccc(C(F)(F)F)cc3)C2)C1 [Example 788, 1-(((3S)-1-((3-(methoxymethyl)-1-azetidinyl)sulfonyl)-3-piperidinyl)carbonyl)-N-(4-(trifluoromethyl)benzyl)-D-prolinamide]",8.9395 µM
6,"O=C(N[C@@H](c1ccc(C(F)(F)F)cc1F)C1COC1)[C@H]1C[C@H]2C[C@H]2N1C(=O)c1cccc(C(F)(F)F)n1 [Example 789, (1R,3R,5R)-N-((R)-(2-fluoro-4-(trifluoromethyl)phenyl)(3-oxetanyl)methyl)-2-((6-(trifluoromethyl)-2-pyridinyl)carbonyl)-2-azabicyclo[3.1.0]hexane-3-carboxamide]",8.9635 µM
7,"N#CC1CN(S(=O)(=O)N2CCN[C@H](C(=O)N3CCC[C@@H]3C(=O)NCc3cc(Cl)cc(Cl)c3)C2)C1 [Example 790, 1-(((2S)-4-((3-cyano-1-azetidinyl)sulfonyl)-2-piperazinyl)carbonyl)-N-(3,5-dichlorobenzyl)-D-prolinamide]",8.9725 µM
8,"Cc1ccc([C@H](NC(=O)[C@H]2C[C@H](F)CN2C(=O)c2cccc(S(C)(=O)=O)c2)C2CC2)cc1F [Example 792, (4S)-N-((R)-cyclopropyl(3-fluoro-4-methyIphenyl)methyl)-4-fluoro-1-(3-(methylsulfonyl)benzoyl)-D-prolinamide]",9.071 µM
9,"CCS(=O)(=O)c1cccc(C(=O)N2CCC[C@@H]2C(=O)NCc2ccc(C(F)(F)F)cc2)c1 [Example 793, 1-(3-(ethylsulfonyl)benzoyl)-N-(4-(trifluoromethyl)benzyl)-D-prolinamide]",9.129 µM
10,"CC(C)(O)c1cccc(C(=O)N2CCC[C@@H]2C(=O)N[C@@H](c2ccc(C(F)(F)F)cc2F)C2CC2)c1 [Example 794, N-((R)-cyclopropyl(2-fluoro-4-(trifluoromethyl)phenyl)methyl)-1-(3-(2-hydroxy-2-propanyl)benzoyl)-D-prolinamide]",9.2425 µM
11,"CS(=O)(=O)c1cc(C(=O)N2[C@@H](C(=O)N[C@@H](c3ccc(Cl)c(F)c3)C3CC3)C[C@H]3C[C@H]32)ccn1 [Example 795, (1R,3R,5R)-N-((R)-(4-chloro-3-fluorophenyl)(cyclopropyl)methyl)-2-((2-(methylsulfonyl)-4-pyridinyl)carbonyl)-2-azabicyclo[3.1.0]hexane-3-carboxamide]",9.3255 µM

# From patent US11780826B2 (Amgen Inc., priority 2017, dated 2023)
